Reference: patent US11534412B2, “Application of totarol and pharmaceutical composition containing totarol” (Emergopharm SP. Z O.O. SP.K., priority 2017, dated 2022)

Test system: Gardnerella vaginalis - clinical strain
Assay: Determination of the MIC value of totarol, broth dilution in 96-well plates with OD and quantitative culture
Format: cell-based
Settings: for OD, average of 3 measurements: 620 nm
Procedure: Test of antibacterial activity of totarol using DMI (dimethylisosorbide) as a solvent.
A suspension of 0.5 McF in physiological saline (suspension density 10^8 cfu/ml) was prepared from a 24-hour culture of a standard strain. 1 ml of the suspension was collected to 9 ml of a TSB broth ([…]). Suspensions with a dilution of 10^−6 were prepared in the described way. A suspension with a cell density of 10^5 cfu/ml was selected for further investigations. For each strain, 2 96-well plates were prepared: the first one was intended for the OD measurement, the second one—for quantitative culture on solid media. • A/ to wells B1-D1, B2-D2 and B-D 4-11, 100 µl of the broth were added; • B/ to wells B3-D3, 200 µl of the broth were added; • C/ to wells B1-D1, 1 µl of stock I was added; • D/ to wells B2-D2, 1 µl of stock II was added; • E/ to wells B3-D3, 2 µl of stock III were added. Using a multichannel pipette, 100 µl of the sample were collected from each of the B3-D3 wells and placed in wells B4-D4 (mixing by sucking the content in and letting it out for 5 times). The pipette tips were replaced and 100 µl of the content were collected from of the B4-D4 wells, and placed in wells B5-D5, mixing as previously. These operations were repeated through the wells B11-D11. The content in the B11-D11 wells was mixed, and 100 µl of the fluid were collected and discarded. This way, a series of dilutions of totarol samples in DMI in the range of 0.32% to 0.0004% was obtained. Then, 100 µl of a corresponding bacterial culture were added to the wells B, C, D 1-11. In consequence, a change in the final concentration range occurred, to 0.16%-0.0002%. Control Preparation: • Negative control: 100 µl of the broth+1 pl DMI were added to the Al well. • Positive control (I): 100 µl of the broth with the bacterial culture were added to the wells E1-G1. • Diluent positive control (II): 100 µl of the broth with the bacterial culture+1 pl DMI were added to the wells E2-G2. The OD value in the individual wells was read at the wavelength of 620 nm (read time 0). From the second 96-well plate, a culture was inoculated by a quantitative method from every dilution onto a well with a proper solid medium, and incubated for 24 h at 37° C. under aerobic or anaerobic conditions, depending on the strain. The plates were incubated under aerobic conditions or in an atmosphere of an elevated CO2 concentration (for the strains requiring it) in an incubator at 37° C. The OD was read after 8 h, 16 h, and 24 h, respectively. Before every OD measurement, the contents of the wells were mixed delicately. In parallel to the OD readout, cultures we inoculated from the second 96-well plate, from every dilution, into plates with a proper solid medium, and incubated for 24 h at 37° C., under aerobic or anaerobic conditions. For the analysis of the experimental results, an average value of the OD measurement obtained from three repetitions in the individual times (0, 8, 16, and 24 h) for the individual microbes (Gardnerella vaginalis, Streptococcus agalactiae, Enterococcus faecalis, Lactobacillus gasseri/plantarum) was taken. Additionally, the number of bacteria grown on solid media was taken into account. The results of the tests confirm the specific, concentration-dependent selectiveness, and the high antibacterial effectiveness of totarol against the pathogenic microorganisms: Gardnerella vaginalis, Streptococcus agalactiae, Enterococcus faecalis at low MIC values safe for bacteria of the Lactobacillus genus.

- MIC value (G. vaginalis): 0.005%
- difference in values of MIC concentrations (bacilli of the Lactobacillus genus versus Gardnerella vaginalis): approximately 10 fold
Structure (SMILES): CC(C)c1c(O)ccc2c1CC[C@H]1C(C)(C)CCC[C@]21C [Totarol, totarol]
- viable count by quantitative culture (cfu/ml) (totarol 0.0002%, 0 h): 1.5 × 10^5 cfu/ml
- OD, average of 3 measurements (totarol 0.0002%, 0 h): 0.313
- viable count by quantitative culture (cfu/ml) (totarol 0.0002%, 8 h): 2 × 10^5 cfu/ml
- OD, average of 3 measurements (totarol 0.0002%, 8 h): 0.328
- viable count by quantitative culture (cfu/ml) (totarol 0.0002%, 16 h): 2 × 10^5 cfu/ml
- OD, average of 3 measurements (totarol 0.0002%, 16 h): 0.364
- viable count by quantitative culture (cfu/ml) (totarol 0.0002%, 24 h): 2.2 × 10^5 cfu/ml
- OD, average of 3 measurements (totarol 0.0002%, 24 h): 0.398
- viable count by quantitative culture (cfu/ml) (totarol 0.0004%, 0 h): 2.2 × 10^5 cfu/ml
- OD, average of 3 measurements (totarol 0.0004%, 0 h): 0.326
- viable count by quantitative culture (cfu/ml) (totarol 0.0004%, 8 h): 2 × 10^5 cfu/ml
- OD, average of 3 measurements (totarol 0.0004%, 8 h): 0.334
- viable count by quantitative culture (cfu/ml) (totarol 0.0004%, 16 h): 4.9 × 10^5 cfu/ml
- OD, average of 3 measurements (totarol 0.0004%, 16 h): 0.362
- viable count by quantitative culture (cfu/ml) (totarol 0.0004%, 24 h): 3.9 × 10^5 cfu/ml
- OD, average of 3 measurements (totarol 0.0004%, 24 h): 0.390
- viable count by quantitative culture (cfu/ml) (totarol 0.0007%, 0 h): 9 × 10^4 cfu/ml
- OD, average of 3 measurements (totarol 0.0007%, 0 h): 0.315
- viable count by quantitative culture (cfu/ml) (totarol 0.0007%, 8 h): 6 × 10^4 cfu/ml
- OD, average of 3 measurements (totarol 0.0007%, 8 h): 0.307
- viable count by quantitative culture (cfu/ml) (totarol 0.0007%, 16 h): 2.1 × 10^5 cfu/ml
- OD, average of 3 measurements (totarol 0.0007%, 16 h): 0.326
- viable count by quantitative culture (cfu/ml) (totarol 0.0007%, 24 h): 3.8 × 10^5 cfu/ml
- OD, average of 3 measurements (totarol 0.0007%, 24 h): 0.346
- viable count by quantitative culture (cfu/ml) (totarol 0.0013%, 0 h): 1 × 10^5 cfu/ml
- OD, average of 3 measurements (totarol 0.0013%, 0 h): 0.321
- viable count by quantitative culture (cfu/ml) (totarol 0.0013%, 8 h): 2.7 × 10^4 cfu/ml
- OD, average of 3 measurements (totarol 0.0013%, 8 h): 0.314
- viable count by quantitative culture (cfu/ml) (totarol 0.0013%, 16 h): 6.2 × 10^5 cfu/ml
- OD, average of 3 measurements (totarol 0.0013%, 16 h): 0.318
- viable count by quantitative culture (cfu/ml) (totarol 0.0013%, 24 h): 1.2 × 10^5 cfu/ml
- OD, average of 3 measurements (totarol 0.0013%, 24 h): 0.322
- viable count by quantitative culture (cfu/ml) (totarol 0.0025%, 0 h): 1.3 × 10^5 cfu/ml
- OD, average of 3 measurements (totarol 0.0025%, 0 h): 0.312
- viable count by quantitative culture (cfu/ml) (totarol 0.0025%, 8 h): 5 × 10^4 cfu/ml
- OD, average of 3 measurements (totarol 0.0025%, 8 h): 0.311
- viable count by quantitative culture (cfu/ml) (totarol 0.0025%, 16 h): 5.2 × 10^4 cfu/ml
- OD, average of 3 measurements (totarol 0.0025%, 16 h): 0.314
- viable count by quantitative culture (cfu/ml) (totarol 0.0025%, 24 h): 2.3 × 10^4 cfu/ml
- OD, average of 3 measurements (totarol 0.0025%, 24 h): 0.317
- viable count by quantitative culture (cfu/ml) (totarol 0.005%, 0 h): 3.1 × 10^5 cfu/ml
- OD, average of 3 measurements (totarol 0.005%, 0 h): 0.318
- viable count by quantitative culture (cfu/ml) (totarol 0.005%, 8 h): 0 cfu/ml
- OD, average of 3 measurements (totarol 0.005%, 8 h): 0.318
- viable count by quantitative culture (cfu/ml) (totarol 0.005%, 16 h): 0 cfu/ml
- OD, average of 3 measurements (totarol 0.005%, 16 h): 0.323
- viable count by quantitative culture (cfu/ml) (totarol 0.005%, 24 h): 0 cfu/ml
- OD, average of 3 measurements (totarol 0.005%, 24 h): 0.327
- viable count by quantitative culture (cfu/ml) (totarol 0.01%, 0 h): 1.6 × 10^5 cfu/ml
- OD, average of 3 measurements (totarol 0.01%, 0 h): 0.319
- viable count by quantitative culture (cfu/ml) (totarol 0.01%, 8 h): 0 cfu/ml
- OD, average of 3 measurements (totarol 0.01%, 8 h): 0.323
- viable count by quantitative culture (cfu/ml) (totarol 0.01%, 16 h): 0 cfu/ml
- OD, average of 3 measurements (totarol 0.01%, 16 h): 0.325
- viable count by quantitative culture (cfu/ml) (totarol 0.01%, 24 h): 0 cfu/ml
- OD, average of 3 measurements (totarol 0.01%, 24 h): 0.328
- viable count by quantitative culture (cfu/ml) (totarol 0.02%, 0 h): 2.1 × 10^5 cfu/ml
- OD, average of 3 measurements (totarol 0.02%, 0 h): 0.344
- viable count by quantitative culture (cfu/ml) (totarol 0.02%, 8 h): 0 cfu/ml
- OD, average of 3 measurements (totarol 0.02%, 8 h): 0.332
- viable count by quantitative culture (cfu/ml) (totarol 0.02%, 16 h): 0 cfu/ml
- OD, average of 3 measurements (totarol 0.02%, 16 h): 0.333
- viable count by quantitative culture (cfu/ml) (totarol 0.02%, 24 h): 0 cfu/ml
- OD, average of 3 measurements (totarol 0.02%, 24 h): 0.334
- viable count by quantitative culture (cfu/ml) (totarol 0.04%, 0 h): 3.7 × 10^5 cfu/ml
- OD, average of 3 measurements (totarol 0.04%, 0 h): 0.460
- viable count by quantitative culture (cfu/ml) (totarol 0.04%, 8 h): 0 cfu/ml
- OD, average of 3 measurements (totarol 0.04%, 8 h): 0.416
- viable count by quantitative culture (cfu/ml) (totarol 0.04%, 16 h): 0 cfu/ml
- OD, average of 3 measurements (totarol 0.04%, 16 h): 0.411
- viable count by quantitative culture (cfu/ml) (totarol 0.04%, 24 h): 0 cfu/ml
- OD, average of 3 measurements (totarol 0.04%, 24 h): 0.379
- viable count by quantitative culture (cfu/ml) (totarol 0.08%, 0 h): 6.1 × 10^5 cfu/ml
- OD, average of 3 measurements (totarol 0.08%, 0 h): 0.740
- viable count by quantitative culture (cfu/ml) (totarol 0.08%, 8 h): 0 cfu/ml
- OD, average of 3 measurements (totarol 0.08%, 8 h): 0.523
- viable count by quantitative culture (cfu/ml) (totarol 0.08%, 16 h): 0 cfu/ml
- OD, average of 3 measurements (totarol 0.08%, 16 h): 0.455
- viable count by quantitative culture (cfu/ml) (totarol 0.08%, 24 h): 0 cfu/ml
- OD, average of 3 measurements (totarol 0.08%, 24 h): 0.441
- viable count by quantitative culture (cfu/ml) (totarol 0.16%, 0 h): 1.4 × 10^5 cfu/ml
- OD, average of 3 measurements (totarol 0.16%, 0 h): 0.822
- viable count by quantitative culture (cfu/ml) (totarol 0.16%, 8 h): 0 cfu/ml
- OD, average of 3 measurements (totarol 0.16%, 8 h): 0.564
- viable count by quantitative culture (cfu/ml) (totarol 0.16%, 16 h): 0 cfu/ml
- OD, average of 3 measurements (totarol 0.16%, 16 h): 0.451
- viable count by quantitative culture (cfu/ml) (totarol 0.16%, 24 h): 0 cfu/ml
- OD, average of 3 measurements (totarol 0.16%, 24 h): 0.438
